Measured values published in publication PMC4965013, “Open Source Drug Discovery with the Malaria Box Compound Collection for Neglected Diseases and Beyond” (PLoS Pathogens, 2016).
Blank lines part the entries; values can stand above or below the compound they belong to.

Tests used:
[1] = test system: P. falciparum 3D7 trophozoites; assay: Metabolomic fingerprint profiling LC-MS; format: cell-based, Plasmodium falciparum; set-up: UDP-D-glucose / ADP-D-glucose: unit not given here; conditions: for Acetyllysine / N-acetyl-L-ornithine / N-carbamoyl-L-aspartate / NADPH / dAMP / dCMP / dTDP / dTMP / dTTP / dihydroorotate / orotate / DLH / DLS/SDL/SID / PD / PEE / PVNF / 3-phosphoglycerate / ADP-D-glucose / ATP / CDP / D-sedoheptulose-1/7-phosphate / FAD / GMP / NAD+ / NADP+ / Octoluse Bisphosphate / Pyroglutamic acid / UDP-D-glucose / UDP-D-glucuronate / UDP-N-acetyl-glucosamine / UDP / UMP / UTP / a-ketoglutarate / citrate/isocitrate / cytidine / dATP / dGMP/AMP / fumarate / glucose-1/6-phosphate / glycerate / guanine / guanosine / hypoxanthine / indole / inosine / nicotinate / ornithine / phosphoenolpyruvate / pyruvate / ribose-phosphate / sarcosine/alanine / sn-glycerol-3-phosphate / succinate/methylmalonic acid / uridine / xanthosine: S2 Table Metabolomics; for Acetyllysine: metabolite Acetyllysine; for N-acetyl-L-ornithine: metabolite N-acetyl-L-ornithine; for N-carbamoyl-L-aspartate: metabolite N-carbamoyl-L-aspartate; for NADPH: metabolite NADPH; for dAMP: metabolite dAMP; for dCMP: metabolite dCMP; for dTDP: metabolite dTDP; for dTMP: metabolite dTMP; for dTTP: metabolite dTTP; for dihydroorotate: metabolite dihydroorotate; for orotate: metabolite orotate; for DLH: peptide DLH; for DLS/SDL/SID: peptide DLS/SDL/SID; for PD: peptide PD; for PEE: peptide PEE; for PVNF: peptide PVNF; for 3-phosphoglycerate: metabolite 3-phosphoglycerate; for ADP-D-glucose: metabolite ADP-D-glucose; for ATP: metabolite ATP; for CDP: metabolite CDP; for CDP / D-sedoheptulose-1/7-phosphate / GMP / Octoluse Bisphosphate / UDP / UMP / UTP / citrate/isocitrate / dGMP/AMP / fumarate / glucose-1/6-phosphate / glycerate / guanine / guanosine / inosine / pyruvate / sarcosine/alanine / succinate/methylmalonic acid / uridine / xanthosine: change in metabolite level after compound treatment; for D-sedoheptulose-1/7-phosphate: metabolite D-sedoheptulose-1/7-phosphate; for FAD: metabolite FAD; for GMP: metabolite GMP; for NAD+: metabolite NAD+; for NADP+: metabolite NADP+; for Octoluse Bisphosphate: metabolite Octoluse Bisphosphate; for Pyroglutamic acid: metabolite Pyroglutamic acid; for UDP-D-glucose: metabolite UDP-D-glucose; for UDP-D-glucuronate: metabolite UDP-D-glucuronate; for UDP-N-acetyl-glucosamine: metabolite UDP-N-acetyl-glucosamine; for UDP: metabolite UDP; for UMP: metabolite UMP; for UTP: metabolite UTP; for a-ketoglutarate: metabolite a-ketoglutarate; for citrate/isocitrate: metabolite citrate/isocitrate; for cytidine: metabolite cytidine; for dATP: metabolite dATP; for dGMP/AMP: metabolite dGMP/AMP; for fumarate: metabolite fumarate; for glucose-1/6-phosphate: metabolite glucose-1/6-phosphate; for glycerate: metabolite glycerate; for guanine: metabolite guanine; for guanosine: metabolite guanosine; for hypoxanthine: metabolite hypoxanthine; for indole: metabolite indole; for inosine: metabolite inosine; for 2_3-Diphosphoglyceric acid / 4-phosphopantothenate / 6-phospho-D-gluconate / FMN / IMP / Pyrophosphate / Sedoheptoluse bisphosphate / cyclic-AMP / glutathione disulfide / lactate / myo-inositol: metabolite level change after treatment; for nicotinate: metabolite nicotinate; for ornithine: metabolite ornithine; for phosphoenolpyruvate: metabolite phosphoenolpyruvate; for pyruvate: metabolite pyruvate; for ribose-phosphate: metabolite ribose-phosphate; for sarcosine/alanine: metabolite sarcosine/alanine; for sn-glycerol-3-phosphate: metabolite sn-glycerol-3-phosphate; for succinate/methylmalonic acid: metabolite succinate/methylmalonic acid; for uridine: metabolite uridine; for xanthosine: metabolite xanthosine
P. falciparum = assay: EC50 listed in S2 Table Metabolomics (used to set the concentration tested); format: cell-based; conditions: Plasmodium falciparum; EC50 used for Factor_XEC50 in metabolomics; read-out: EC50_nM

EC50 (P. falciparum): 400 nM
SMILES: Cc1cccc(Nc2nc(N)c3ccccc3n2)c1 [MMV019110]
Acetyllysine [1]: -0.7861 | N-acetyl-L-ornithine [1]: -0.3066 | N-carbamoyl-L-aspartate [1]: 0.8718 | NADPH [1]: 1.0636 | dAMP [1]: 0.1705 | dCMP [1]: -1.068 | dTDP [1]: -0.2853 | dTMP [1]: -0.4806 | dTTP [1]: -0.142 | dihydroorotate [1]: 1.069 | orotate [1]: -0.7263 | DLH [1]: -1.2334 | DLS/SDL/SID [1]: -0.8825 | PD [1]: -0.6502 | PEE [1]: -0.294 | PVNF [1]: -0.8541 | 3-phosphoglycerate [1]: 0.2769 | ADP-D-glucose [1]: 0.08672 | ATP [1]: 0.01278 | CDP [1]: -0.4413 | D-sedoheptulose-1/7-phosphate [1]: -0.5631 | FAD [1]: -0.04154 | GMP [1]: 0.0758 | NAD+ [1]: -0.03841 | NADP+ [1]: 0.1589 | Octoluse Bisphosphate [1]: -0.09051 | Pyroglutamic acid [1]: -0.4571 | UDP-D-glucose [1]: -0.005349 | UDP-D-glucuronate [1]: 0.1448 | UDP-N-acetyl-glucosamine [1]: -0.09963 | UDP [1]: -0.5337 | UMP [1]: -0.1391 | UTP [1]: -0.1864 | a-ketoglutarate [1]: -0.9521 | citrate/isocitrate [1]: -0.8432 | cytidine [1]: 0.1554 | dATP [1]: -0.04411 | dGMP/AMP [1]: 0.02273 | fumarate [1]: -0.3633 | glucose-1/6-phosphate [1]: -0.2644 | glycerate [1]: -1.224 | guanine [1]: -1.026 | guanosine [1]: -2.158 | hypoxanthine [1]: -0.00849 | indole [1]: -0.09763 | inosine [1]: -0.6039 | 2_3-Diphosphoglyceric acid [1]: -0.1372 | 4-phosphopantothenate [1]: -0.5707 | 6-phospho-D-gluconate [1]: -0.1735 | FMN [1]: 0.07582 | IMP [1]: -0.3382 | Pyrophosphate [1]: -0.02007 | Sedoheptoluse bisphosphate [1]: -0.1834 | cyclic-AMP [1]: -0.2741 | glutathione disulfide [1]: -0.5227 | lactate [1]: -1.008 | myo-inositol [1]: -1.363 | nicotinate [1]: -1.278 | ornithine [1]: 0.0513 | phosphoenolpyruvate [1]: 0.03081 | pyruvate [1]: -1.488 | ribose-phosphate [1]: -0.08015 | sarcosine/alanine [1]: -0.6413 | sn-glycerol-3-phosphate [1]: -0.02952 | succinate/methylmalonic acid [1]: -0.4318 | uridine [1]: -1.131 | xanthosine [1]: -0.9126

EC50 (P. falciparum): 345 nM
SMILES: Fc1ccc2[nH]c3c(NCCCN4CCOCC4)ncnc3c2c1 [MMV019871]
Acetyllysine [1]: -0.8876 | N-acetyl-L-ornithine [1]: -0.1209 | N-carbamoyl-L-aspartate [1]: 0.08503 | NADPH [1]: 0.6093 | dAMP [1]: 0.6696 | dCMP [1]: -0.1368 | dTDP [1]: 0.799 | dTMP [1]: 0.8196 | dTTP [1]: 0.3182 | dihydroorotate [1]: 0.6163 | orotate [1]: 0.06699 | DLH [1]: -1.437 | DLS/SDL/SID [1]: -0.7695 | PD [1]: -0.933 | PEE [1]: -0.4641 | PVNF [1]: -1.358 | 3-phosphoglycerate [1]: -0.4045 | ADP-D-glucose [1]: -0.2501 | ATP [1]: -0.2422 | CDP [1]: 0.8712 | D-sedoheptulose-1/7-phosphate [1]: 0.6203 | FAD [1]: -0.1788 | GMP [1]: 0.008366 | NAD+ [1]: -0.1288 | NADP+ [1]: -0.2271 | Octoluse Bisphosphate [1]: -0.5075 | Pyroglutamic acid [1]: 0.06535 | UDP-D-glucose [1]: -0.1274 | UDP-D-glucuronate [1]: -0.1958 | UDP-N-acetyl-glucosamine [1]: -0.09954 | UDP [1]: 0.8844 | UMP [1]: -0.5999 | UTP [1]: -0.2069 | a-ketoglutarate [1]: -0.1645 | citrate/isocitrate [1]: -0.2521 | cytidine [1]: -0.343 | dATP [1]: -0.2053 | dGMP/AMP [1]: 0.4546 | fumarate [1]: -0.6533 | glucose-1/6-phosphate [1]: -0.1277 | glycerate [1]: -0.2409 | guanine [1]: 0.2236 | guanosine [1]: 0.1132 | hypoxanthine [1]: 0.02159 | indole [1]: -0.3008 | inosine [1]: 0.02443 | 2_3-Diphosphoglyceric acid [1]: -0.241 | 4-phosphopantothenate [1]: -0.03538 | 6-phospho-D-gluconate [1]: -0.1618 | FMN [1]: 0.07605 | IMP [1]: 0.1512 | Pyrophosphate [1]: -0.1841 | Sedoheptoluse bisphosphate [1]: -0.3231 | cyclic-AMP [1]: -0.2059 | glutathione disulfide [1]: -0.2521 | lactate [1]: 0.01945 | myo-inositol [1]: 0.08413 | nicotinate [1]: 0.1601 | ornithine [1]: 0.04638 | phosphoenolpyruvate [1]: -0.3024 | pyruvate [1]: 0.2194 | ribose-phosphate [1]: -0.9686 | sarcosine/alanine [1]: -0.2747 | sn-glycerol-3-phosphate [1]: -0.2288 | succinate/methylmalonic acid [1]: -0.1938 | uridine [1]: 0.09395 | xanthosine [1]: -0.4756
